Test results taken from US20230382916A1, “HETEROARYL HETEROCYCLIC COMPOUNDS AND USES THEREOF” (HUTCHISON MEDIPHARMA LIMITED, priority 2020, published 2023).

Test system: anti-IgD antibody-induced B cell activation in mice whole blood
Test: In vivo efficacy of the inhibitory effect on BTK target: anti-IgD antibody-induced B cell activation in mice whole blood after oral dosing
Set-up: species or system mouse
Conditions: 5 mg/kg oral single dose, 16 h
Protocol: Objects: B cells in mice whole blood were induced and activated by the anti-IgD antibody, and the inhibitory effect of the compound of the present invention on B cell activation in vivo was studied, so as to determine the inhibitory effect of the compound of the present invention on the BTK target in vivo.
Methods: C57BL/6 mice (female, 18-20 g, purchased from Shanghai Lingchang Biotechnology Co., Ltd.) were grouped according to Table 1.
The animals of each group were administered, then were placed in CO2 for anesthesia at designated time points, blood samples were taken from […] via retro-orbital bleeding, and heparin was used for anticoagulation; 90 μL of whole blood was taken from mice of each group, and added to a 96 well culture plate, and anti-mouse IgD antibody (BIO-RAD, Cat #MCA4693) was added to each well to a final concentration of […] (respectively for each drug-treated group and anti-IgD antibody-inducted vehicle group); in addition, 90 μL of whole blood of mice in the vehicle group was taken and added to the 96-well culture plate, and PBS (phosphate buffer, GIBCO, Cat #C20012500BT) was added to each well to a final concentration of 0.01 μg/L (namely, the vehicle control group); Each group was mixed well and incubated in a 37° C./5% CO2 incubator for 4 hours. In addition, the blood of mice in the drug-treated group was centrifuged to separate plasma for blood concentration analysis.
B cell activation ratio=percentage of CD69^+CD19^+ double positive B cells/percentage of CD19^+ single positive B cells
Inhibition ratio=(percentage of B cell activation ratio in anti-IgD antibody-induced vehicle group−percentage of B cell activation ratio in drug-treated group)/(percentage of B cell activation ratio in anti-IgD antibody−induced vehicle group-percentage of B cell activation ratio in vehicle control group)×100%
All data are represented by mean±standard error. For the comparison between each drug-treated group and the anti-IgD antibody-induced vehicle group, p value was calculated by Graphpad Prism using one-way ANOVA analysis of variance and Dunnett's test, and for the comparison between each drug-treated group, p value was calculated by using unpaired t test.

C[C@H]1CN(C2COC2)C[C@H](C)N1c1ccc(Nc2cc(-c3ccnc(-n4ccn5c6c(cc5c4=O)CC(C)(C)C6)c3CO)cn(C)c2=O)nc1 [Compound 1, 2-(5-((5-((2S,6S)-2,6-dimethyl-4-(oxetan-3-yl)piperazin-1-yl)pyridin-2-yl)amino)-3′-(hydroxymethyl)-1-methyl-6-oxo-1,6-dihydro-[3,4′-bipyridin]-2′-yl)-7,7-dimethyl-7,8-dihydro-2H-cyclopenta[4,5]pyrrolo[1,2-a]pyrazin-1(6H)-one]
Inhibition ratio (%) on B cell activation: 60% | B cell activation ratio (the population of activated B cells in total B cells) (mean ± standard error): 16.0 ± 3.9 | Inhibition ratio (%) on B cell activation (listed as compound 1): 60%
